The values that follow come from US6409988B1, “Radiolabeled 1-aryl pyrazoles, the synthesis thereof and the use thereof as pest GABA receptor ligands” (3-Dimensional Pharmaceuticals, Inc., priority 1999, dated 2002).

In general, IC50 refers to the midpoint of a concentration-inhibition curve. Read a low IC50 as greater potency.

For one series, the target named is T1, housefly GABA receptor (Musca domestica, UniProt Q75NA5).
T1 sequence (Q75NA5 30-576): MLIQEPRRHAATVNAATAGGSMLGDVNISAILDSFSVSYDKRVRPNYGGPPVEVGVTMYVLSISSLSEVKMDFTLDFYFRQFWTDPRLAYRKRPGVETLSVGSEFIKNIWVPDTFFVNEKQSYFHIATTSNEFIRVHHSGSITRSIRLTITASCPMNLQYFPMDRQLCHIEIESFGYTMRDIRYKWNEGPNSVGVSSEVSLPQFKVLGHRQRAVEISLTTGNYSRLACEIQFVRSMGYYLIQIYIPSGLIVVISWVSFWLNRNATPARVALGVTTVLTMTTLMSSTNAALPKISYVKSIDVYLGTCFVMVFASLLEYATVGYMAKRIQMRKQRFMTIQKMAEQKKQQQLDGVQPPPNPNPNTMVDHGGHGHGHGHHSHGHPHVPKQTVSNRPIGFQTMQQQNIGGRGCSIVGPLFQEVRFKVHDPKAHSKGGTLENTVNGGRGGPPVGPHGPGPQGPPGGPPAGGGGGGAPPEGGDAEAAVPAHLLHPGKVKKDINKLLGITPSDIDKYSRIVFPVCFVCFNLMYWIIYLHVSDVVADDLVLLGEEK
As to the kind of experiment: Displacement of 3H-EBOB from the housefly GABA receptor. Format: binding. The procedure:
(§1) Compound 1 binds to the housefly GABA receptor with high affinity (IC50=8 nM, for displacement of 2.6 nM of ^3H-EBOB) and can be radiolabeled at high specific activity (>70 Ci/mmol). These are two highly desirable requirements for a new radioligand.
Background: In a radioligand displacement assay an active substance lowers the binding of a labelled ligand.

A short description of series [1]: Chemical stability of the radioligand. Format: physicochemical. The following applies: avoids periodic purification steps. As for the experimental part: as §1

`[3H]C([3H])([3H])Sc1nn(-c2c(Cl)cc(C(F)(F)F)cc2Cl)c(N)c1C#N` [Compound 1, 4-cyano-1-(2,6-dichloro-4-trifluorophenyl)-3-[^3H3]methylthiopyrazol-5-ylamine] came in with an IC50 on housefly GABA receptor of 8 nM. Besides, in series [1], the chemical stability entry is “chemically stable”.
